From patent US20120232290A1, “REACTIVITY OF HYDROXYMETHYLGLUTARYL COENZYME A (HMG-COA) REDUCTASE INHIBITORS CONTAINING CONJUGATED DIENES WITH PHENOLIC ANTIOXIDANTS IN THE SOLID-STATE” (priority 2007, published 2012)
Where two headings read alike, the source gives them in different places.

Assays:
[1] = Stability of isolated simvastatin hydroperoxide degradates on storage; format: physicochemical; conditions: stored under freezer conditions
[2] = format: physicochemical; conditions: for hydroxy and hydroperoxide products formed: reactions with antioxidants, determined by LC/MS; for decrease in concentration of statin / change in concentration of statin: solid-state, 50° C., 9 days
Procedure: Solvents used varied due to the solubility of the statin. […] The beaker was placed in a dark oven maintained at 50° C. overnight. The beaker was removed from the oven, allowed to cool, then 20 mL of solvent were added and the beaker swirled to redissolve the solid. The beaker was returned to the oven and heated an additional 24 h at 50° C. This dissolution and heating process was repeated daily for the duration of the specific experiment. […] Reversed-phase HPLC analyses were performed using an Agilent 1100 HPLC with an Agilent diode array detector acquiring data in the range of 205-400 nm. This LC/MS-compatible method utilized a Discovery RP Amide C16 250 mm×4.6 mm, 5 μm column (Supelco Inc, Bellefonte Pa.). Mobile phase A was aqueous 0.1% (v/v) formic acid and mobile phase B was acetonitrile containing 0.1% (v/v) formic acid. Mobile phase flow rate was 1 mL/min and the column was maintained at 30° C. The elution sequence was isocratic 60% A:40% B for 0.5 min; a gradient of 60% A:40% B to 50% A:50% B over 1.5 min then hold for 28 min; 50% A:50% B to 20% A:80% B over 1.0 min then hold for 3 min; 20% A:80% B to 100% B over 1.0 min then hold for 4 min. LC/MS analyses were performed using a Waters Acquity UPLC with PDA and a Micro Quattro MS with infusion pump with the LC method described above.

[3] = aqueous solution, radical initiator; cited from earlier work

Row | Compound | decomposition of isolate on storage [1] | degradation of statin [2] | hydroxy and hydroperoxide products formed [2] | change in concentration of statin ([2]; with BHA) | change in concentration of statin ([2]; with α-tocopherol) | further results
1 | CCC(C)(C)C(=O)OC1C[C@](C)(OO)C=C2C=CC(C)C(CCC3CC(O)CC(=O)O3)C21 (stereo partly drawn) [3(S)-hydroperoxysimvastatin] | slowly decomposed to numerous products over a few days |  |  |  |  | 
2 | CCC(C)(C)C(=O)OC1C[C@@](C)(OO)C=C2C=CC(C)C(CCC3CC(O)CC(=O)O3)C21 (stereo partly drawn) [3(R)-hydroperoxysimvastatin] | slowly decomposed to numerous products over a few days |  |  |  |  | 
3 | CC[C@H](C)C(=O)O[C@H]1C[C@@H](C)C=C2C=C[C@H](C)[C@H](CC[C@@H]3C[C@@H](O)CC(=O)O3)[C@H]21 [lovastatin] |  | Minimal degradation | minimal quantities of hydroxy and hydroperoxide products | remained essentially unchanged | remained essentially unchanged | decrease in concentration of statin ([2]; incubated alone): about 12%; decrease in concentration of statin ([2]; with propyl gallate): about 12%; rates of oxidation (lovastatin versus simvastatin) [3]: nearly identical rates of oxidation
4 | CC[C@H](C)C(=O)O[C@H]1CCC=C2C=C[C@H](C)[C@H](CC[C@@H]3C[C@@H](O)CC(=O)O3)[C@H]21 [mevastatin] |  | Minimal degradation | minimal quantities of hydroxy and hydroperoxide products | no decrease | no decrease | change in concentration of statin ([2]; incubated alone): no decrease; change in concentration of statin ([2]; with propyl gallate): no decrease
5 | CC[C@H](C)C(=O)O[C@H]1C[C@H](O)C=C2C=C[C@H](C)[C@H](CC[C@@H](O)C[C@@H](O)CC(=O)O)[C@H]21 [pravastatin] |  | Minimal degradation |  |  |  | 
